Laboratory results: ChEMBL document CHEMBL1154899, “Synthesis and biological evaluation of caffeic acid 3,4-dihydroxyphenethyl ester” (J Nat Prod, 2010)

How the values were obtained:
Assay type in all cases: functional
SNB-75 [1] = experiment: Antiproliferative activity against human SNB75 cells assessed as cell growth at 5 mM by SRB assay; conditions: read-out: Activity
HCC 2998 = experiment: Antiproliferative activity against human HCC2998 cells by SRB assay
SR [2] = experiment: Antiproliferative activity against human SR cells assessed as cell growth at 500 uM by SRB assay; conditions: read-out: Activity
HOP-92 = experiment: Antiproliferative activity against human HOP92 cells assessed as cell growth at 0.5 uM by SRB assay; conditions: read-out: Activity
KM12 [3] = experiment: Antiproliferative activity against human KM12 cells assessed as cell growth at 5 uM by SRB assay; conditions: read-out: Activity
[4] = Antiproliferative activity against human […] cells assessed as cell growth at 0.5 uM by SRB assay; conditions: read-out: Activity
U-251 [5] = experiment: Antiproliferative activity against human U251 cells assessed as cell growth at 50 uM by SRB assay; conditions: read-out: Activity
HT-29 = experiment: Antiproliferative activity against human HT-29 cells assessed as cell growth at […] by SRB assay; conditions: read-out: Activity
RXF 393 = experiment: Antiproliferative activity against human RXF393 cells by SRB assay
NCI-H23 [6] = experiment: Antiproliferative activity against human NCI-H23 cells assessed as cell growth at 50 uM by SRB assay; conditions: read-out: Activity
HL-60(TB) = experiment: Antiproliferative activity against human HL-60(TB) cells assessed as cell growth at 5 mM by SRB assay; conditions: read-out: Activity
SK-OV-3 = experiment: Antiproliferative activity against human SKOV3 cells assessed as cell growth at 500 uM by SRB assay; conditions: read-out: Activity
SF-539 [7] = experiment: Antiproliferative activity against human SF539 cells assessed as cell growth at 0.5 uM by SRB assay; conditions: read-out: Activity
[8] = Antiproliferative activity against human Hs 578T cells assessed as cell growth at 50 uM by SRB assay; conditions: read-out: Activity
SNB-75 [9] = experiment: Antiproliferative activity against human SNB75 cells assessed as cell growth at 500 uM by SRB assay; conditions: read-out: Activity
HOP-62 = experiment: Antiproliferative activity against human HOP62 cells assessed as cell growth at 500 uM by SRB assay; conditions: read-out: Activity
OVCAR-3 = experiment: Antiproliferative activity against human OVCAR-3 cells by SRB assay
Malme-3M = experiment: Antiproliferative activity against human MALME-3M cells assessed as cell growth at 500 uM by SRB assay; conditions: read-out: Activity
UACC-257 = experiment: Antiproliferative activity against human UACC257 cells assessed as cell growth at 5 uM by SRB assay; conditions: read-out: Activity
MDA-MB-435 [10] = experiment: Antiproliferative activity against human MDA-MB-435 cells by SRB assay
NCI-H322M = experiment: Antiproliferative activity against human NCI-H322M cells by SRB assay
COLO 205 = experiment: Antiproliferative activity against human COLO205 cells assessed as cell growth at 50 uM by SRB assay; conditions: read-out: Activity
NCI-H23 [11] = experiment: Antiproliferative activity against human NCI-H23 cells by SRB assay
BT-549 = experiment: Antiproliferative activity against human BT549 cells by SRB assay
A498 = experiment: Antiproliferative activity against human A498 cells assessed as cell growth at 0.5 uM by SRB assay; conditions: read-out: Activity
SK-MEL-28 = experiment: Antiproliferative activity against human SK-MEL-28 cells assessed as cell growth at 500 uM by SRB assay; conditions: read-out: Activity
SK-MEL-2 = experiment: Antiproliferative activity against human SK-MEL-2 cells assessed as cell growth at 500 uM by SRB assay; conditions: read-out: Activity
U-251 [12] = experiment: Antiproliferative activity against human U251 cells assessed as cell growth at 0.5 uM by SRB assay; conditions: read-out: Activity
NCI-H460 = experiment: Antiproliferative activity against human NCI-H460 cells assessed as cell growth at 50 uM by SRB assay; conditions: read-out: Activity
OVCAR-8 = experiment: Antiproliferative activity against human OVCAR8 cells by SRB assay
KM12 [13] = experiment: Antiproliferative activity against human KM12 cells by SRB assay
EKVX = experiment: Antiproliferative activity against human EKVX cells by SRB assay
CCRF-CEM = experiment: Antiproliferative activity against human CCRF-CEM cells assessed as cell growth at 500 uM by SRB assay; conditions: read-out: Activity
SF-539 [14] = experiment: Antiproliferative activity against human SF539 cells assessed as cell growth at 500 uM by SRB assay; conditions: read-out: Activity
SR [15] = experiment: Antiproliferative activity against human SR cells assessed as cell growth at 5 uM by SRB assay; conditions: read-out: Activity
SW-620 = experiment: Antiproliferative activity against human SW620 cells by SRB assay
ACHN = experiment: Antiproliferative activity against human ACHN cells assessed as cell growth at 50 uM by SRB assay; conditions: read-out: Activity
MDA-MB-435 [16] = experiment: Antiproliferative activity against human MDA-MB-435 cells assessed as cell growth at 0.5 uM by SRB assay; conditions: read-out: Activity
[17] = read-out: LC50 (the source's name)
[18] = read-out: pLC50 (the source's name) (converted)

O=C(/C=C/c1ccc(O)c(O)c1)OCCc1ccc(O)c(O)c1 gave a growth at 5000 µM (SNB-75 [1]) of 30%, a GI50 (HCC 2998; read-out: GI50) of 14.6 µM and a CC50 (HCC 2998; [17]) greater than 50 µM. For the same molecule, the TGI (HCC 2998; read-out: TGI) was greater than 50 µM, the GI50 (HCC 2998; read-out: pGI50 (converted)) was 14.5 µM and the CC50 (HCC 2998; [18]) was greater than 50.1 µM. For the same molecule, the TGI (HCC 2998; read-out: pTGI) was greater than 50.1 µM, the growth at 500 µM (SR [2]) was 20% and the growth at 0.5 µM (HOP-92) was 70%. It also gave a growth at 5 µM (KM12 [3]) of 95%, a growth at 0.5 µM [4] of 86% and a growth at 50 µM (U-251 [5]) of 98%. The growth (HT-29) was 34%, the GI50 (RXF 393; read-out: GI50) was 15.5 µM and the CC50 (RXF 393; [17]) was greater than 50 µM. For the same molecule, the TGI (RXF 393; read-out: TGI) was greater than 50 µM, the GI50 (RXF 393; read-out: pGI50 (converted)) was 15.5 µM and the CC50 (RXF 393; [18]) was greater than 50.1 µM. It also gave a TGI (RXF 393; read-out: pTGI) greater than 50.1 µM, a growth at 50 µM (NCI-H23 [6]) of 89% and a growth at 5000 µM (HL-60(TB)) of -30%. The growth at 500 µM (SK-OV-3) was 79%, the growth at 0.5 µM (SF-539 [7]) was 90% and the growth at 50 µM [8] was 80%. The growth at 500 µM (SNB-75 [9]) was 58%, the growth at 500 µM (HOP-62) was 95% and the GI50 (OVCAR-3; read-out: GI50) was 5.17 µM. It also gave a CC50 (OVCAR-3; [17]) greater than 50 µM, a TGI (OVCAR-3; read-out: TGI) greater than 50 µM and a GI50 (OVCAR-3; read-out: pGI50 (converted)) of 5.13 µM. It also gave a CC50 (OVCAR-3; [18]) greater than 50.1 µM, a TGI (OVCAR-3; read-out: pTGI) greater than 50.1 µM and a growth at 500 µM (Malme-3M) of 74%. The growth at 5 µM (UACC-257) was 92%, the GI50 (MDA-MB-435 [10]; read-out: GI50) was 4.01 µM and the CC50 (MDA-MB-435 [10]; [17]) was greater than 50 µM. It also gave a TGI (MDA-MB-435 [10]; read-out: TGI) greater than 50 µM, a GI50 (MDA-MB-435 [10]; read-out: pGI50 (converted)) of 3.98 µM and a CC50 (MDA-MB-435 [10]; [18]) greater than 50.1 µM. The TGI (MDA-MB-435 [10]; read-out: pTGI) was greater than 50.1 µM, the GI50 (NCI-H322M; read-out: GI50) was 28.1 µM and the CC50 (NCI-H322M; [17]) was greater than 50 µM. For the same molecule, the TGI (NCI-H322M; read-out: TGI) was greater than 50 µM, the GI50 (NCI-H322M; read-out: pGI50 (converted)) was 28.2 µM and the CC50 (NCI-H322M; [18]) was greater than 50.1 µM. It also gave a TGI (NCI-H322M; read-out: pTGI) greater than 50.1 µM, a growth at 50 µM (COLO 205) of 89% and a GI50 (NCI-H23 [11]; read-out: GI50) of 11.6 µM. The CC50 (NCI-H23 [11]; [17]) was greater than 50 µM, the TGI (NCI-H23 [11]; read-out: TGI) was greater than 50 µM and the GI50 (NCI-H23 [11]; read-out: pGI50 (converted)) was 11.5 µM. The CC50 (NCI-H23 [11]; [18]) was greater than 50.1 µM, the TGI (NCI-H23 [11]; read-out: pTGI) was greater than 50.1 µM and the GI50 (BT-549; read-out: GI50) was 8.67 µM. It also gave a CC50 (BT-549; [17]) greater than 50 µM, a TGI (BT-549; read-out: TGI) greater than 50 µM and a GI50 (BT-549; read-out: pGI50 (converted)) of 8.32 µM. The CC50 (BT-549; [18]) was greater than 50.1 µM, the TGI (BT-549; read-out: pTGI) was greater than 50.1 µM and the growth at 0.5 µM (A498) was 94%. The growth at 500 µM (SK-MEL-28) was 55%, the growth at 500 µM (SK-MEL-2) was 38% and the growth at 0.5 µM (U-251 [12]) was 102%. It also gave a growth at 50 µM (NCI-H460) of 100%, a GI50 (OVCAR-8; read-out: GI50) of 9.32 µM and a CC50 (OVCAR-8; [17]) greater than 50 µM. It also gave a TGI (OVCAR-8; read-out: TGI) greater than 50 µM, a GI50 (OVCAR-8; read-out: pGI50 (converted)) of 9.33 µM and a CC50 (OVCAR-8; [18]) greater than 50.1 µM. The TGI (OVCAR-8; read-out: pTGI) was greater than 50.1 µM, the GI50 (KM12 [13]; read-out: GI50) was 7.92 µM and the CC50 (KM12 [13]; [17]) was greater than 50 µM. It also gave a TGI (KM12 [13]; read-out: TGI) greater than 50 µM, a GI50 (KM12 [13]; read-out: pGI50 (converted)) of 7.94 µM and a CC50 (KM12 [13]; [18]) greater than 50.1 µM. For the same molecule, the TGI (KM12 [13]; read-out: pTGI) was greater than 50.1 µM, the GI50 (EKVX; read-out: GI50) was 14.9 µM and the CC50 (EKVX; [17]) was greater than 50 µM. The TGI (EKVX; read-out: TGI) was greater than 50 µM, the GI50 (EKVX; read-out: pGI50 (converted)) was 14.8 µM and the CC50 (EKVX; [18]) was greater than 50.1 µM. It also gave a TGI (EKVX; read-out: pTGI) greater than 50.1 µM, a growth at 500 µM (CCRF-CEM) of 1% and a growth at 500 µM (SF-539 [14]) of 55%. It also gave a growth at 5 µM (SR [15]) of 81%, a GI50 (SW-620; read-out: GI50) of 10.2 µM and a CC50 (SW-620; [17]) greater than 50 µM. It also gave a TGI (SW-620; read-out: TGI) greater than 50 µM, a GI50 (SW-620; read-out: pGI50 (converted)) of 10.2 µM and a CC50 (SW-620; [18]) greater than 50.1 µM. It also gave a TGI (SW-620; read-out: pTGI) greater than 50.1 µM, a growth at 50 µM (ACHN) of 89% and a growth at 0.5 µM (MDA-MB-435 [16]) of 99%.
